Here are results for five compounds from patent US8247565B2, “Sirtuin modulating compounds” (Sirtris Pharmaceuticals, Inc., priority 2007, dated 2012).

Where a name gives a salt, the structure may show the parent alone.

Series [1] is described as follows: Salt/free base screening by DSC and TGA (physical stability, polymorphs). Type of series: physicochemical. The conditions noted are these: for polymorphism / phase changes on heating (DSC, TGA): thermal range evaluated by DSC/TGA (FIGS. 1, 2). Here is the method:
Eight acceptable (Regulatory and pKa) salts were made of Compound 1, namely with hydrochloric acid, sulfuric acid, methanesulfonic acid, maleic acid, phosphoric acid, L-tartaric acid, citric acid, and malic acid. The resulting salts or the free base were then screened on: • 1) Processing, morphology, polymorphs; • 2) Crystal shape, single stable polymorph; • 3) Physical stability; • 4) Open dish accelerated stability (40° C./75% RH); and • 5) Biorelevant dissolution.
Since no other thermal transitions are observed in the DSC or TGA results, it appears Compound 1 exists only as a single phase (i.e. no polymorphs) over the thermal range evaluated.
Since the polymorphic transitions can have significant effects on dissolution and bioavailability of the drug substance, it is practical to select forms of the drug substance that minimize or eliminate the potential for phase transitions.

Series [2] deals with Ob/ob mouse. Description: Blood glucose in Ob/ob mouse model. Format: in vivo. The conditions noted are these: ob/ob mice, free base 100 mg/kg. The text has this:
(§1) The purpose of this example was to compare the efficacy of Compound 1 in salt and free base formulations in two different mouse models of diabetes, a diet induced obesity model (DIO) and the Ob/ob mouse. Blood glucose was the main determinant through the experiment of efficacy.
Ob/ob mice are genetically manipulated knockout mice that lack leptin, an important satiety protein that neurologically signals the end of hunger. The leptin mutation is homozygous and a heterozygous strain is included as a control (Ob/+); this group should not show increased weight or blood glucose, aside from the normal effects of being on a high fat diet.
During week 1, there is already a decrease in blood glucose of almost 60 mg/dL from the vehicle group. This trend continued for the fasted glucose at week 2 (FIG. 7) as the Compound 1 group had 158.3 mg/dL glucose compared to 285.3 mg/dL glucose in the vehicle group.

The test system of series [3] is diet induced obesity model (DIO). The series is described as follows: Blood glucose in diet induced obesity (DIO) mouse model. Format: in vivo, C57BL/6 male mice. The conditions noted are these: DIO mice; for blood glucose vs vehicle: from week 2 onwards (FIGS. 3-5); for week 4 fed glucose test vs vehicle: blood glucose remained lower than vehicle.
Excerpt: as §1
For the diet induced obesity model, six week old C57BL/6 male mice (Charles River Labs) were fed a high fat diet (60% calories from fat; Research Diets) for approximately 6 weeks until their body weight reached approximately 40 g. Test compounds were administered daily via oral gavage at the indicated doses. The vehicle used was 2% HPMC and 0.2% DOSS. Individual mouse body weights were measured twice weekly. Every 2 weeks throughout the study, mice from each group were bled via the tail vein for determination of blood glucose. Statistical analysis was completed using the JMP program (Version 6). Data were analyzed by a one way ANOVA with comparison to control using a Dunnett's Test. A p value <0.05 indicated a significant difference between groups.
Compound 1 in the free base form was then tested in the DIO model.

As for `Cc1nc(-c2cccnc2)sc1C(=O)Nc1ccccc1-c1cn2c(CN3CCOCC3)csc2n1` [Compound 1, 4-methyl-N-(2-(3-(morpholinomethyl)imidazo[2,1-b]thiazol-6-yl)phenyl)-2-(pyridin-3-yl)thiazole-5-carboxamide], in series [1], the “polymorphism / phase changes on heating (DSC, TGA)” value is “no polymorphs”. In series [2] (week 1 (FIG. 6)), the “decrease in blood glucose from the vehicle group” value is approximately 60 mg/dL. This compound also showed a fasted blood glucose in series [2] (week 2 fasted (FIG. 7), vehicle group 285.3 mg/dL, p less than 0.0001) of 158.3 mg/dL. In addition, the “blood glucose relative to vehicle groups” value in series [2] (week 3 fed (FIG. 8)) is reported as “significant (p<0.01) decrease”. Also, the “blood glucose vs vehicle” value in series [3] (100 mg/kg/day oral gavage) is “significant reductions in blood glucose”. Also, the “blood glucose vs vehicle group at weeks 2 and 3” value in series [3] (free base 100 mg/kg/day, weeks 2 (fed) and 3 (fasted), p value less than 0.01) is given as “significant decrease”.

Consider `O=C(Nc1ccccc1-c1cn2c(CN3CCNCC3)csc2n1)c1cnc2ccccc2n1` [Compound 2, N-(2-(3-(piperazin-1-ylmethyl)imidazo[2,1-b]thiazol-6-yl)phenyl)quinoxaline-2-carboxamide], for which the “blood glucose vs vehicle” value in series [3] (100 mg/kg/day oral gavage) was “significant reductions in blood glucose”. The “week 4 fed glucose test vs vehicle” value in series [3] (100 mg/kg/day) is “significance was lost”.

Consider `Cc1nc(-c2cccnc2)sc1C(=O)Nc1ccccc1-c1cn2c(CN3CCOCC3)csc2n1` [HCl salt form of Compound 1], for which, in series [1] (TGA weight loss on heating attributed to water loss), the hygroscopicity entry was “hygroscopic”. For the same compound, the “polymorphism / phase changes on heating (DSC, TGA)” value in series [1] is “transitions between polymorphic forms”.

Consider `CN(C)C(=N)N=C(N)N` [metformin, reference compound], for which the “blood glucose vs vehicle” value in series [3] (400 mg/kg/day oral gavage) is on record as “significant reductions in blood glucose”.

`Oc1ccc(C=Cc2cc(O)cc(O)c2)cc1` [resveratrol, reference compound]: the “blood glucose vs vehicle” value in series [3] (1000 mg/kg/day oral gavage) was “significant reductions in blood glucose”. In series [3] (1000 mg/kg/day), the “week 4 fed glucose test vs vehicle” value is reported as “significance was lost”.
